From patent US9833497B2, “Human originated EGF domain proteins and use of the same” (CHENGDU SOURCEBIO LIMITED-LIABILITY COMPANY, priority 2013, dated 2017)

How the values were obtained:
Type in all cases: cell-based
[1] = tested on: E. coli DH5α; assay: Antibacterial activity: MIC and growth curve against E. coli DH5α in 96-well plate; conditions: minimal inhibitory concentration against E. coli DH5α; 96-well plate, 5×10^5 CFU/mL, 37° C., judged after 8 h
Procedure, shortened: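 MIC taken as lowest protein level with no bacterial growth, tracked by A600 every 30 min during 37 °C, 175 rpm culture. Two-fold protein series 50-12.5 μg/mL final, triplicate wells, against 5×10^5 CFU/mL of LB-washed mid-log cells.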

[2] = tested on: E. coli BL21; assay: MIC against Gram-negative bacteria: E. coli BL21
Procedure, shortened: (§1)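 MIC = lowest concentration of recombinant protein showing no growth. Test proteins: purified human-derived EGF domain proteins, two-fold dilution series, three wells per concentration; inoculum 5×10^5 CFU/mL in LB; incubation 37° C with shaking at 175 rpm.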

[3] = tested on: Pseudomonas aeruginosa; assay: MIC against Gram-negative bacteria: Pseudomonas aeruginosa
Procedure, shortened: as §1

[4] = tested on: Klebsiella pneumonia; assay: MIC against Gram-negative bacteria: Klebsiella pneumonia
Procedure, shortened: as §1

[5] = tested on: Enterobacter cloacae; assay: MIC against Gram-negative bacteria: Enterobacter cloacae
Procedure, shortened: as §1

[6] = tested on: Aeromonas hydrophila; assay: MIC against Gram-negative bacteria: Aeromonas hydrophila
Procedure, shortened: as §1

[7] = tested on: Citrobacter diversus; assay: MIC against Gram-negative bacteria: Citrobacter diversus
Procedure, shortened: as §1

[8] = tested on: Moraxella catarrhalis; assay: MIC against Gram-negative bacteria: Moraxella catarrhalis
Procedure, shortened: as §1

[9] = tested on: Proteus mirabilis; assay: MIC against Gram-negative bacteria: Proteus mirabilis
Procedure, shortened: as §1

[10] = tested on: Proteus vulgaris; assay: MIC against Gram-negative bacteria: Proteus vulgaris
Procedure, shortened: as §1

[11] = tested on: Serratia marcescens; assay: MIC against Gram-negative bacteria: Serratia marcescens
Procedure, shortened: as §1

[12] = 96-well plate, 5×10^5 CFU/mL, 37° C., 10 h
[13] = 10 h cultivation at 37° C., 5×10^5 CFU/mL, two-fold serial dilution

PRT137 (NPCQGSATCVNTPGERSFLCKCPPGYSGTICE; listed as Homo sapiens)
MIC [1]: 25 µg/mL
MIC (μg/mL) E. coli BL21 ([2]; E. coli BL21, 96-well plate, 5×10^5 CFU/mL, 37° C., 10 h): 12.5 µg/mL
MIC (μg/mL) P. aeruginosa ([3]; Pseudomonas aeruginosa, 96-well plate, 5×10^5 CFU/mL, 37° C., 10 h): 25 µg/mL
MIC (μg/mL) K. pneumonia ([4]; Klebsiella pneumonia, 96-well plate, 5×10^5 CFU/mL, 37° C., 10 h): 12.5 µg/mL
MIC (μg/mL) E. cloacae ([5]; Enterobacter cloacae, 96-well plate, 5×10^5 CFU/mL, 37° C., 10 h): 25 µg/mL
MIC (μg/mL) A. hydrophila ([6]; Aeromonas hydrophila, 96-well plate, 5×10^5 CFU/mL, 37° C., 10 h): 12.5 µg/mL
MIC (μg/mL) C. diversus ([7]; Citrobacter diversus, 96-well plate, 5×10^5 CFU/mL, 37° C., 10 h): 25 µg/mL
MIC (μg/mL) M. catarrhalis ([8]; Moraxella catarrhalis, 96-well plate, 5×10^5 CFU/mL, 37° C., 10 h): 12.5 µg/mL
MIC (μg/mL) P. mirabilis ([9]; Proteus mirabilis, 96-well plate, 5×10^5 CFU/mL, 37° C., 10 h): 25 µg/mL
MIC (μg/mL) P. vulgaris ([10]; Proteus vulgaris, 96-well plate, 5×10^5 CFU/mL, 37° C., 10 h): 12.5 µg/mL
MIC (μg/mL) S. marcescens ([11]; Serratia marcescens, 96-well plate, 5×10^5 CFU/mL, 37° C., 10 h): 50 µg/mL

PRT779 (VSPCSRGYCDHGGQCQHLPSGPRCSCVSFSIYTAWGEHCE; listed as Homo sapiens)
MIC [1]: 12.5 µg/mL
MIC (μg/mL) E. coli BL21 ([2]; E. coli BL21, 10 h cultivation at 37° C., 5×10^5 CFU/mL): 12.5 µg/mL
MIC (μg/mL) P. aeruginosa ([3]; P. aeruginosa, 10 h cultivation at 37° C., 5×10^5 CFU/mL): 50 µg/mL
MIC (μg/mL) K. pneumonia ([4]; K. pneumonia, 10 h cultivation at 37° C., 5×10^5 CFU/mL): 12.5 µg/mL
MIC (μg/mL) E. cloacae ([5]; E. cloacae, 10 h cultivation at 37° C., 5×10^5 CFU/mL): 50 µg/mL
MIC (μg/mL) A. hydrophila ([6]; A. hydrophila, 10 h cultivation at 37° C., 5×10^5 CFU/mL): 12.5 µg/mL
MIC (μg/mL) C. diversus ([7]; C. diversus, 10 h cultivation at 37° C., 5×10^5 CFU/mL): 50 µg/mL
MIC (μg/mL) M. catarrhalis ([8]; M. catarrhalis, 10 h cultivation at 37° C., 5×10^5 CFU/mL): 12.5 µg/mL
MIC (μg/mL) P. mirabilis ([9]; P. mirabilis, 10 h cultivation at 37° C., 5×10^5 CFU/mL): 50 µg/mL
MIC (μg/mL) P. vulgaris ([10]; P. vulgaris, 10 h cultivation at 37° C., 5×10^5 CFU/mL): 12.5 µg/mL
MIC (μg/mL) S. marcescens ([11]; S. marcescens, 10 h cultivation at 37° C., 5×10^5 CFU/mL): 50 µg/mL

PRT577 (CACHPSRARGPTCNEFTGQCHCRAGFGGRTCSECQELHWGDPGLQCHA; listed as Homo sapiens)
MIC [1]: 12.5 µg/mL
MIC against E. coli BL21 [2, 12]: 25 µg/mL
MIC against P. aeruginosa [3, 12]: 50 µg/mL
MIC against K. pneumonia [4, 12]: 25 µg/mL
MIC against E. cloacae [5, 12]: 12.5 µg/mL
MIC against A. hydrophila [6, 12]: 25 µg/mL
MIC against C. diversus [7, 12]: 50 µg/mL
MIC against M. catarrhalis [8, 12]: 12.5 µg/mL
MIC against P. mirabilis [9, 12]: 50 µg/mL
MIC against P. vulgaris [10, 12]: 12.5 µg/mL
MIC against S. marcescens [11, 12]: 50 µg/mL

PRT1021 (LQNPCYIGTHGCDTNAACRPGPRTQFTCECSIGFRGDGRTCY; listed as Homo sapiens)
MIC [1]: 25 µg/mL
MIC ([2]; E. coli BL21, 10 h cultivation at 37° C.): 12.5 µg/mL
MIC ([3]; P. aeruginosa, 10 h cultivation at 37° C.): 25 µg/mL
MIC ([4]; K. pneumonia, 10 h cultivation at 37° C.): 50 µg/mL
MIC ([5]; E. cloacae, 10 h cultivation at 37° C.): 25 µg/mL
MIC ([6]; A. hydrophila, 10 h cultivation at 37° C.): 12.5 µg/mL
MIC ([7]; C. diversus, 10 h cultivation at 37° C.): 50 µg/mL
MIC ([8]; M. catarrhalis, 10 h cultivation at 37° C.): 12.5 µg/mL
MIC ([9]; P. mirabilis, 10 h cultivation at 37° C.): 50 µg/mL
MIC ([10]; P. vulgaris, 10 h cultivation at 37° C.): 12.5 µg/mL
MIC ([11]; S. marcescens, 10 h cultivation at 37° C.): 50 µg/mL

PRT1064 (INECLSRKLSGCSQDCEDLKIGFKCRCRPGFRLKDDGRTCA; listed as Homo sapiens)
MIC [1]: 25 µg/mL
MIC E. coli BL21 [2, 13]: 50 µg/mL
MIC P. aeruginosa [3, 13]: 25 µg/mL
MIC K. pneumonia [4, 13]: 12.5 µg/mL
MIC E. cloacae [5, 13]: 50 µg/mL
MIC A. hydrophila [6, 13]: 25 µg/mL
MIC C. diversus [7, 13]: 12.5 µg/mL
MIC M. catarrhalis [8, 13]: 25 µg/mL
MIC P. mirabilis [9, 13]: 50 µg/mL
MIC P. vulgaris [10, 13]: 25 µg/mL
MIC S. marcescens [11, 13]: 12.5 µg/mL

PRT726 (LPPPCRCMHGGNCYFDETDLPKCKCPSGYTGKYCE; listed as Homo sapiens)
MIC [1]: 12.5 µg/mL
MIC E. coli BL21 [2, 12]: 50 µg/mL
MIC P. aeruginosa [3, 12]: 25 µg/mL
MIC K. pneumonia [4, 12]: 25 µg/mL
MIC E. cloacae [5, 12]: 12.5 µg/mL
MIC A. hydrophila [6, 12]: 25 µg/mL
MIC C. diversus [7, 12]: 50 µg/mL
MIC M. catarrhalis [8, 12]: 25 µg/mL
MIC P. mirabilis [9, 12]: 12.5 µg/mL
MIC P. vulgaris [10, 12]: 50 µg/mL
MIC S. marcescens [11, 12]: 25 µg/mL
